Measurements published in patent publication US11187660B2, “Fluorescent probes for monitoring voltage by photo-induced electron transfer” (The Regents of the University of California, priority 2011, dated 2021).
Values joined by “and” are separate entries in the source; they are usually repeats but may differ in a detail not shown here. Equal entries are not always repeated. “Also recorded” adds a separate entry of the source.

Legend:
leech Retzius cell = experiment: Optical recording of spontaneous activity in leech ganglia; type: cell-based, Hirudo medicinalis; conditions: sampling at 50 Hz, stained 15 min
Experimental: A more stringent test of the usefulness of the PeT-based VSD is to determine whether it can accurately measure subthreshold activity in heterogeneous preparations. For this test we used leech ganglia, because their neurons have been well studied using both electrophysiological and other VSD recordings (14, 33-35). We isolated a midbody ganglion and stained it with VF2.1.Cl for 15 min at 22° C. (FIG. 13C). Insertion of a sharp electrode (25 MΩ) into a Retzius cell to enabled recording of its spontaneous activity while simultaneously recording the fluorescence signals from the same cell. […] The optically recorded spikes are truncated as a result of undersampling the optical signal; sampling at a higher rate (722 Hz) fully resolved the action potentials, but introduced a significant amount of sampling noise (FIG. 14). Although the action potential was subsampled at just 50 Hz, there is still a reliable transient in the optical trace that indicates the time when an action potential occurs, which is often what is needed.
Isolated midbody ganglia (Ganglia 8-16) were dissected from Hirudo medicinalis and the ventral side was desheathed using standard procedures. […]
Imaging was done with a Cascade 128+ EMCCD camera (Photometrics). […] The fluorescence illumination was from an LED that has its peak excitation wave-length in the excitation range for FITC. […] The data is stored in Matlab-readable files.

HEK293 cells = experiment: Voltage sensitivity of fluorescence in voltage-clamped HEK cells (whole-cell recording); type: cell-based, human; conditions: for voltage sensitivity ΔF/F per 100 mV: HEK293 cells voltage-clamped at −60 mV holding potential
Description: Membrane voltage of cells loaded with VF1.4.Cl or VF2.4.Cl were controlled by making tight-seal whole-cell recordings. Cells were maintained at a holding potential of −60 mV and stepped for 50 ms to various depolarizing and hyperpolarizing potentials (FIG. 5A), while simultaneously acquiring epifluorescence images. For both sensors, depolarizing steps result in fluorescence increases while hyperpolarizing steps decrease fluorescence intensity, in keeping with our proposed mechanism. […] For di-4-ANEPPS, typical values are 0.08-0.12% per mV. The larger changes for VF1.4.Cl and VF2.4.Cl compared to di-4-ANEPPS are somewhat expected, since a PeT-based voltage sensor samples the entire emission spectrum, whereas electrochromic dyes are limited to the edge of the spectrum only. For both probes, the voltage responses are linear across the physiologically relevant ranges of −100 mV to +100 mV. To assess the speed of the optical response to voltage, VF2.4.Cl signals were monitored in response to voltage steps of 100 mV from a holding potential of −60 mV.
We characterized the voltage sensitivity of all three indicators by making tight-seal whole-cell recordings of HEK293 cells stained with the VF sensors. Cells were voltage-clamped at −60 mV holding potential and sequentially stepped to depolarizing and hyperpolarizing potentials at 20-mV increments (FIG. 9B). For all three dyes, depolarizing steps produced fluorescence increases, whereas hyperpolarizing steps produced fluorescence decreases, in keeping with the proposed PeT mechanism. The fluorescence response is linear over the range of −100 mV to +100 mV (FIG. 9C), with voltage sensitivities ΔF/F per 100 mV of 20±1% for VF1.4.Cl and 25±1% for VF2.4.Cl. This statistically significant increase in voltage sensitivity (P<0.05, two-tailed Student t test) is expected upon increasing the length of the molecular wire, and is 2.5- to 4-times more sensitive than di-4-ANEPPS, which, in our hands, gives sensitivities of between 6% and 10% ΔF/F per 100 mV. […] To investigate the speed of response of VF probes, we again made whole-cell recordings of cells stained with VF2.4.Cl, applied 100-mV depolarizing steps from a holding potential of −60 mV, and recorded both the electrophysiological signals and the optical signals.
Electrophysiological recordings of HEK293 cells and cultured neurons were performed with an Axopatch 200A or 200B amplifier (Molecular Devices) at room temperature. The signals were digitized with Digidata 1332A and recorded with pCLAMP 9 software (Molecular Devices) on a PC. Analysis of electrophysiological data was done with AxoGraph X (AxoGraphX), pCLAMP 9, and/or ClampFit (Molecular Devices). For most experiments the extracellular solution consisted of (in mM) 145 NaCl, 20 glucose, 10 HEPES, 3 KCl, 2 CaCl2, 1 MgCl2 (pH 7.35, 310 mOsm). The intracellular solution contained (in mM) 115 potassium gluconate, 10 BAPTA tetrapotassium salt, 10 HEPES, 5 NaCl, 10 KCl, 2 ATP disodium salt, 0.3 GTP trisodium salt (pH 7.25, 290 mOsm).
For studies to determine excitation sensitivity of dyes, illumination was provided by a Polychrom IV light source (T.I.L.L. Photonics GMBH) with a mechanical shutter (Uniblitz VS25). For all other studies, light was provided by an Xenon arc lamp powered by an Optiquip Power supply (Optiquip) with a mechanical shutter controlled by a Lambda 10-2 controller (Sutter). […]

CN(C)c1ccc(/C=C/c2ccc(/C=C/c3ccc(-c4c5cc(Cl)c(=O)cc-5oc5cc(O)c(Cl)cc45)c(S(=O)(=O)O)c3)cc2)cc1 [VF2.1.Cl, 5-(4-(4-(dimethyllamino)styryl)styryl)-2-(2,7-dichloro-6-hydroxy-3-oxo-3H-xanthen-9-yl)benzenesulfonic acid]
optical recording versus electrical recording of spontaneous activity (leech Retzius cell): near-perfect matching of the subthreshold membrane potential; also recorded: faithfully followed the subthreshold fluctuations | voltage sensitivity ΔF/F per 100 mV (HEK293 cells): 27±1%

CCCCN(CCCC)c1ccc(/C=C/c2ccc(/C=C/c3ccc(-c4c5cc(Cl)c(=O)cc-5oc5cc(O)c(Cl)cc45)c(S(=O)(=O)O)c3)cc2)cc1 [VF2.4.Cl, 5-(4-(4-(dibutylamino)styryl)styryl)-2-(2,7-dichloro-6-hydroxy-3-oxo-3H-xanthen-9-yl)benzenesulfonic acid]
voltage sensitivity ΔF/F per 100 mV (HEK293 cells): 25±1% | sensitivity, fractional fluorescence change (ΔF/F) versus change in membrane potential (HEK293 cells; HEK cells, holding potential −60 mV): 0.25±0.01 % per mV and 0.25 % per mV
